Results: US5840684A, “Glycopeptide antibiotic derivatives” (Eli Lilly and Company, priority 1995, dated 1998)
≈ marks a conversion by molar mass, not a printed value.

Key:
[1] = test system: Enterococcus gallinarum 245; assay: broth micro-dilution MIC; format: cell-based; conditions: Enterococcus gallinarum 245
Method: (§1) The formula I compounds have in vitro and in vivo activity against Gram-positive pathogenic bacteria. The MIC's were determined using a standard broth micro-dilution assay.

Escherichia coli EC14 = assay: broth micro-dilution MIC; format: cell-based
Method: as §1

Entercoccus faecium 180 = assay: broth micro-dilution MIC; format: cell-based; conditions: Entercoccus faecium 180
Method: as §1

[2] = test system: Staphylococcus haemolyticus 105; assay: broth micro-dilution MIC; format: cell-based
Method: as §1

[3] = test system: Streptococcus pneumoniae P1; assay: broth micro-dilution MIC; format: cell-based
Method: as §1

[4] = test system: Haemophilus influenzae RD; assay: broth micro-dilution MIC; format: cell-based; conditions: Haemophilus influenzae RD
Method: as §1

Entercoccus faecium 2041 = assay: broth micro-dilution MIC; format: cell-based; conditions: Entercoccus faecium 2041
Method: as §1

[5] = test system: Staphylococcus haemolyticus 415; assay: broth micro-dilution MIC; format: cell-based
Method: as §1

[6] = test system: Staphylococcus epidermidis 270; assay: broth micro-dilution MIC; format: cell-based
Method: as §1

[7] = test system: vancomycin-resistant enterococci; assay: broth micro-dilution, mean geometric MIC; format: cell-based, Enterococcus faecium and Enterococcus faecalis; conditions: enterococci, 24-hour incubation
[8] = test system: vancomycin-susceptible enterococci; assay: broth micro-dilution, mean geometric MIC; format: cell-based, Enterococcus faecium and Enterococcus faecalis; conditions: enterococci, 24-hour incubation
[9] = test system: Staphylococcus aureus S13E; format: cell-based
Method: (§2) The MIC's were determined using a standard broth micro-dilution assay.

[10] = test system: Staphylococcus aureus SA1199B; format: cell-based
Method: as §2

[11] = test system: Staphylococcus aureus 447; assay: broth micro-dilution MIC; format: cell-based
Method: as §2

[12] = test system: Entercoccus faecium 180-1; assay: broth micro-dilution MIC; format: cell-based
Method: as §2

[13] = test system: Staphylococcus aureus X400; assay: broth micro-dilution MIC; format: cell-based
Method: as §2

Entercoccus faecium 276 = assay: broth micro-dilution MIC; format: cell-based
Method: as §2

[14] = test system: Staphylococcus aureus X778; assay: broth micro-dilution MIC; format: cell-based
Method: as §2

[15] = test system: Staphylococcus aureus SA1199A; assay: broth micro-dilution MIC; format: cell-based
Method: as §2

[16] = test system: Streptococcus pyogenes C203; assay: broth micro-dilution MIC; format: cell-based
Method: as §2

[17] = test system: Staphylococcus aureus 491; assay: broth micro-dilution MIC; format: cell-based
Method: as §2

[18] = test system: Staphylococcus aureus 489; assay: broth micro-dilution MIC; format: cell-based
Method: as §2

[19] = test system: Staphylococcus aureus 446; assay: broth micro-dilution MIC; format: cell-based
Method: as §2

[20] = test system: Staphylococcus aureus SA1199; assay: broth micro-dilution MIC; format: cell-based
Method: as §2

SMILES	MIC [1] [µg/mL]	MIC (Escherichia coli EC14) [µg/mL]	MIC (Entercoccus faecium 180) [µg/mL]	MIC [2] [µg/mL]	MIC [3] [µg/mL]	MIC [4] [µg/mL]	MIC (Entercoccus faecium 2041) [µg/mL]	MIC [5] [µg/mL]	MIC [6] [µg/mL]	mean geometric MIC, Vancomycin Resistant Strains [7] [µg/mL]	mean geometric MIC, Vancomycin Sensitive Strains [8] [µg/mL]	MIC [9] [µg/mL]	MIC [10] [µg/mL]	MIC [11] [µg/mL]	MIC [12] [µg/mL]	MIC [13] [µg/mL]	MIC (Entercoccus faecium 276) [µg/mL]	MIC [14] [µg/mL]	MIC [15] [µg/mL]	MIC [16] [µg/mL]	other results
CC(C)CC(C(=O)NC1C(=O)NC(CC(N)=O)C(=O)NC2C(=O)NC3C(=O)NC(C(=O)NC(C(=O)O)c4cc(O)cc(O)c4-c4cc3ccc4O)C(OC3CC(C)(N)C(O)C(C)O3)c3ccc(c(Cl)c3)Oc3cc2cc(c3OC2OC(CO)C(O)C(O)C2OC2CC(C)(NCc3ccc(-c4ccccc4)cc3)C(O)C(C)O2)Oc2ccc(cc2Cl)C1O)N(C)Cc1ccc(-c2ccccc2)cc1 (stereo not drawn) [Compound 251]	4 (≈ 2.08 µM)	> 64	2 (≈ 1.04 µM)	2 (≈ 1.04 µM)	≤ 0.06	> 64	≤ 0.06	4 (≈ 2.08 µM)	0.25 (≈ 0.13 µM)	2	0.66	≤ 0.06	≤ 0.06	0.125 (≈ 0.0649 µM)	≤ 0.06	≤ 0.06	≤ 0.06	≤ 0.06	≤ 0.06	≤ 0.06	MIC [17]: ≤ 0.06 µg/mL; MIC [18]: ≤ 0.06 µg/mL; MIC [19]: 0.25 µg/mL (≈ 0.13 µM); MIC [20]: ≤ 0.06 µg/mL
CC(C)CC(C(=O)NC1C(=O)NC(CC(N)=O)C(=O)NC2C(=O)NC3C(=O)NC(C(=O)NC(C(=O)O)c4cc(O)cc(O)c4-c4cc3ccc4O)C(OC3CC(C)(N)C(O)C(C)O3)c3ccc(c(Cl)c3)Oc3cc2cc(c3OC2OC(CO)C(O)C(O)C2OC2CC(C)(N)C(O)C(C)O2)Oc2ccc(cc2Cl)C1O)N(C)Cc1ccc(-c2ccc(Cl)cc2)cc1.O=C(O)C(F)(F)F (stereo not drawn) [Compound 252]	1	> 64	0.5	0.5	≤ 0.06	> 64	≤ 0.06	1	0.125	9.5	0.1	0.125	≤ 0.06	≤ 0.06	≤ 0.06	0.125	≤ 0.06	≤ 0.06	≤ 0.06	≤ 0.06	MIC [17]: ≤ 0.06 µg/mL; MIC [18]: ≤ 0.06 µg/mL; MIC [19]: 0.125 µg/mL; MIC [20]: 0.125 µg/mL
CC(C)CC(C(=O)NC1C(=O)NC(CC(N)=O)C(=O)NC2C(=O)NC3C(=O)NC(C(=O)NC(C(=O)O)c4cc(O)cc(O)c4-c4cc3ccc4O)C(OC3CC(C)(N)C(O)C(C)O3)c3ccc(c(Cl)c3)Oc3cc2cc(c3OC2OC(CO)C(O)C(O)C2OC2CC(C)(NCc3ccc(-c4ccc(Cl)cc4)cc3)C(O)C(C)O2)Oc2ccc(cc2Cl)C1O)N(C)Cc1ccc(-c2ccc(Cl)cc2)cc1.O=C(O)C(F)(F)F (stereo not drawn) [Compound 253]	16	> 64	0.5	16	0.125	> 64	4	16	8	4.8	3	32	32	16	0.5	32	16	16	1	0.25	MIC [17]: 2 µg/mL; MIC [18]: 16 µg/mL; MIC [19]: 64 µg/mL; MIC [20]: 32 µg/mL
CNC(CC(C)C)C(=O)NC1C(=O)NC(CC(N)=O)C(=O)NC2C(=O)NC3C(=O)NC(C(=O)NC(C(=O)O)c4cc(O)cc(O)c4-c4cc3ccc4O)C(OC3CC(C)(NCc4ccc(-c5ccc(Cl)cc5)cc4)C(O)C(C)O3)c3ccc(c(Cl)c3)Oc3cc2cc(c3OC2OC(CO)C(O)C(O)C2OC2CC(C)(NCc3ccc(-c4ccc(Cl)cc4)cc3)C(O)C(C)O2)Oc2ccc(cc2Cl)C1O.O=C(O)C(F)(F)F (stereo not drawn) [Compound 254]	16	> 64	0.25	16	≤ 0.06	> 64	4	16	8	2	0.5	32	16	16	0.25	8	8	4	0.5	0.5	MIC [17]: 1 µg/mL; MIC [18]: 16 µg/mL; MIC [19]: 32 µg/mL; MIC [20]: 8 µg/mL
CC(C)CC(C(=O)NC1C(=O)NC(CC(N)=O)C(=O)NC2C(=O)NC3C(=O)NC(C(=O)NC(C(=O)O)c4cc(O)cc(O)c4-c4cc3ccc4O)C(OC3CC(C)(NCc4ccc(-c5ccc(Cl)cc5)cc4)C(O)C(C)O3)c3ccc(c(Cl)c3)Oc3cc2cc(c3OC2OC(CO)C(O)C(O)C2OC2CC(C)(NCc3ccc(-c4ccc(Cl)cc4)cc3)C(O)C(C)O2)Oc2ccc(cc2Cl)C1O)N(C)Cc1ccc(-c2ccc(Cl)cc2)cc1.O=C(O)C(F)(F)F (stereo not drawn) [Compound 255]	> 64	> 64	> 64	> 64	1	> 64	16	> 64	> 64	64	32	> 64	> 64	> 64	16	> 64	> 64	> 64	16	16	MIC [17]: > 64 µg/mL; MIC [18]: > 64 µg/mL; MIC [19]: 64 µg/mL; MIC [20]: > 64 µg/mL
CC(C)CC(C(=O)NC1C(=O)NC(CC(N)=O)C(=O)NC2C(=O)NC3C(=O)NC(C(=O)NC(C(=O)O)c4cc(O)cc(O)c4-c4cc3ccc4O)C(OC3CC(C)(N)C(O)C(C)O3)c3ccc(c(Cl)c3)Oc3cc2cc(c3OC2OC(CO)C(O)C(O)C2OC2CC(C)(N)C(O)C(C)O2)Oc2ccc(cc2Cl)C1O)N(C)Cc1ccc(O)cc1 (stereo not drawn) [Compound 257]	≤ 0.06	> 64	4 (≈ 2.35 µM)	2 (≈ 1.18 µM)	≤ 0.06	> 64	≤ 0.06	8 (≈ 4.71 µM)	0.25 (≈ 0.147 µM)	64	1	≤ 0.06	≤ 0.06	0.25 (≈ 0.147 µM)	≤ 0.06	≤ 0.06	≤ 0.06	≤ 0.06	≤ 0.06	≤ 0.06	MIC [17]: ≤ 0.06 µg/mL; MIC [18]: ≤ 0.06 µg/mL; MIC [19]: ≤ 0.06 µg/mL; MIC [20]: ≤ 0.06 µg/mL
